The kinase profiling compilation of Christmann-Franck et al. (2016)
One block for each compound: values may come before it.

Assays:
Assay in all cases: radiometric filter-binding kinase assay
PIM3 (human) = PIM3 (human) (UniProt Q86V86)
MELK (human) = MELK (human) (UniProt Q14680)
CHEK1 (human) = CHEK1 (human) (UniProt O14757)
PRKCA (human) = PRKCA (human) (UniProt P17252)
MAPK12 (human) = MAPK12 (human) (UniProt P53778)
[1] = test system: SGK1 (human), O00141 [S422D]
PRKACA (human) = PRKACA (human) (UniProt P17612)
PHKG1 (human) = PHKG1 (human) (UniProt Q16816)
Sequence of PHKG1 (human) (Q16816 whole entry, looked up): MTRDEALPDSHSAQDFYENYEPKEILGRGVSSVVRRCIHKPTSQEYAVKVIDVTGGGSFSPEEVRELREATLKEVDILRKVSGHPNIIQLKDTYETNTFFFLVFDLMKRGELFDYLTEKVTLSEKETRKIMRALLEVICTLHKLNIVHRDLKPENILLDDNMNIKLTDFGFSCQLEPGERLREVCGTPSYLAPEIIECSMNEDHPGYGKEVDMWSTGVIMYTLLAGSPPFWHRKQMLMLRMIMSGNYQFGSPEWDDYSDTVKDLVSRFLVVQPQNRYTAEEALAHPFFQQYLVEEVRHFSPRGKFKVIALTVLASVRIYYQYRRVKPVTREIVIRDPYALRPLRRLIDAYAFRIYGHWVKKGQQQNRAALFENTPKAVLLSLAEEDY

MAPKAPK5 (human) = MAPKAPK5 (human) (UniProt Q8IW41)
CDK2 CCNA2 (human) = CDK2 CCNA2 (human) (UniProt P20248+P24941)
CSNK2A1 (human) = CSNK2A1 (human) (UniProt P68400)
Sequence of CSNK2A1 (human) (P68400 whole entry, looked up): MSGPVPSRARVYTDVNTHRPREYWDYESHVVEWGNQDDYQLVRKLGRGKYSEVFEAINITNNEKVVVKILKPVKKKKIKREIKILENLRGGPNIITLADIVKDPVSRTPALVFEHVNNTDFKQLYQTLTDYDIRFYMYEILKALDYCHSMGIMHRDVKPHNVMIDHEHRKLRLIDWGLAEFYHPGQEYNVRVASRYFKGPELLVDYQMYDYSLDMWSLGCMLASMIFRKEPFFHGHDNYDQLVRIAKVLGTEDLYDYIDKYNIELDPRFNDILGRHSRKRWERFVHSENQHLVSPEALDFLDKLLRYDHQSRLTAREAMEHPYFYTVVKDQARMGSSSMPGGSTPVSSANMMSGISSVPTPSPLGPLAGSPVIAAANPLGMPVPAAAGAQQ

PIM2 (human) = PIM2 (human) (UniProt Q9P1W9)
MAPK15 (human) = MAPK15 (human) (UniProt Q8TD08)
Sequence of MAPK15 (human) (Q8TD08 whole entry, looked up): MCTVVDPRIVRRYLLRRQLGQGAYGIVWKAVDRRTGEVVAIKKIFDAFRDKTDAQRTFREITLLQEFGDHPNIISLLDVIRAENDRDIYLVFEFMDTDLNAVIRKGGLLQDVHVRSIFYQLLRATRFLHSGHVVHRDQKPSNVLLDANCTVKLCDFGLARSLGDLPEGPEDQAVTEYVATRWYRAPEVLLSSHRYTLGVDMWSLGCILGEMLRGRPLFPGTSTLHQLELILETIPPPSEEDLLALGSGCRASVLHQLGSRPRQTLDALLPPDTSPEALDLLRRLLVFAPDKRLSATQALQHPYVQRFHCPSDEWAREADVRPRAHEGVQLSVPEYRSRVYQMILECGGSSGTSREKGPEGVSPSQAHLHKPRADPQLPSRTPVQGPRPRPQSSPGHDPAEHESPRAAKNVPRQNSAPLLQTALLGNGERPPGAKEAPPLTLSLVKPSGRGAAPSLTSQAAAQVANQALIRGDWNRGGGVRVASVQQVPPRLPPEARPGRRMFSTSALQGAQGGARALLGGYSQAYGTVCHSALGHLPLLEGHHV

MAPKAPK3 (human) = MAPKAPK3 (human) (UniProt Q16644)
SRPK1 (human) = SRPK1 (human) (UniProt Q96SB4)
MAPK10 (human) = MAPK10 (human) (UniProt P53779)
EEF2K (human) = EEF2K (human) (UniProt O00418)
AURKB (human) = AURKB (human) (UniProt Q96GD4)
RPS6KA3 KD1 KD2 (human) = RPS6KA3 KD1 KD2 (human) (UniProt P51812)
DYRK2 (human) = DYRK2 (human) (UniProt Q92630)
INSRR (human) = INSRR (human) (UniProt P14616)
BTK (human) = BTK (human) (UniProt Q06187)
EPHA2 (human) = EPHA2 (human) (UniProt P29317)
Sequence of EPHA2 (human) (P29317 whole entry, looked up): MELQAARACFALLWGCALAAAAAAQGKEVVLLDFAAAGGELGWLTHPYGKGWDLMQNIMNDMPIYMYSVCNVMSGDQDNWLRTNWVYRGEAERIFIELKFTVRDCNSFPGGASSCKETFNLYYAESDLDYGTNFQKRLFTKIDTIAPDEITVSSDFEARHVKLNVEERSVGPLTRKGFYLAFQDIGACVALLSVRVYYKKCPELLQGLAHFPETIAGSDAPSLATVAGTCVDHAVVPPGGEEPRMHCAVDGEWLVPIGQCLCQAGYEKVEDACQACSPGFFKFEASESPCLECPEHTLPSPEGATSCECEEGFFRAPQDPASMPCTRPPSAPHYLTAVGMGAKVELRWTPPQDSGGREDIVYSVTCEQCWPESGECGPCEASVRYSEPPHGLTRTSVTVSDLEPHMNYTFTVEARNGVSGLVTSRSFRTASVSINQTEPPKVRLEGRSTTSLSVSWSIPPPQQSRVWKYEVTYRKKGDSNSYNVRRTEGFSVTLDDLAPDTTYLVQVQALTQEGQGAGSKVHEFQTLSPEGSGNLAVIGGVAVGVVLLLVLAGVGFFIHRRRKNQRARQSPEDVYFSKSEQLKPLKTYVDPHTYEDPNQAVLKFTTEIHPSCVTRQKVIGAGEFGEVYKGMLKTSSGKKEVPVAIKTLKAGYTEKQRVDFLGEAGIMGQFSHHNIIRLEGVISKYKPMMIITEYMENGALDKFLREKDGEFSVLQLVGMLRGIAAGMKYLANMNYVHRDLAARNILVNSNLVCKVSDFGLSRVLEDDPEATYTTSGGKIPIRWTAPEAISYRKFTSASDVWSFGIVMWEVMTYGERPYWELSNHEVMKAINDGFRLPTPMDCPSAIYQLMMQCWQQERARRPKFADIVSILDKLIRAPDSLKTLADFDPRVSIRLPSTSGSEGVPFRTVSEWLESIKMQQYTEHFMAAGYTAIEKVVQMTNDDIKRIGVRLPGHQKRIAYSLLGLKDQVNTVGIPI

FGFR1 (human) = FGFR1 (human) (UniProt P11362)
FLT1 (human) = FLT1 (human) (UniProt P17948)
Sequence of FLT1 (human) (P17948 whole entry, looked up): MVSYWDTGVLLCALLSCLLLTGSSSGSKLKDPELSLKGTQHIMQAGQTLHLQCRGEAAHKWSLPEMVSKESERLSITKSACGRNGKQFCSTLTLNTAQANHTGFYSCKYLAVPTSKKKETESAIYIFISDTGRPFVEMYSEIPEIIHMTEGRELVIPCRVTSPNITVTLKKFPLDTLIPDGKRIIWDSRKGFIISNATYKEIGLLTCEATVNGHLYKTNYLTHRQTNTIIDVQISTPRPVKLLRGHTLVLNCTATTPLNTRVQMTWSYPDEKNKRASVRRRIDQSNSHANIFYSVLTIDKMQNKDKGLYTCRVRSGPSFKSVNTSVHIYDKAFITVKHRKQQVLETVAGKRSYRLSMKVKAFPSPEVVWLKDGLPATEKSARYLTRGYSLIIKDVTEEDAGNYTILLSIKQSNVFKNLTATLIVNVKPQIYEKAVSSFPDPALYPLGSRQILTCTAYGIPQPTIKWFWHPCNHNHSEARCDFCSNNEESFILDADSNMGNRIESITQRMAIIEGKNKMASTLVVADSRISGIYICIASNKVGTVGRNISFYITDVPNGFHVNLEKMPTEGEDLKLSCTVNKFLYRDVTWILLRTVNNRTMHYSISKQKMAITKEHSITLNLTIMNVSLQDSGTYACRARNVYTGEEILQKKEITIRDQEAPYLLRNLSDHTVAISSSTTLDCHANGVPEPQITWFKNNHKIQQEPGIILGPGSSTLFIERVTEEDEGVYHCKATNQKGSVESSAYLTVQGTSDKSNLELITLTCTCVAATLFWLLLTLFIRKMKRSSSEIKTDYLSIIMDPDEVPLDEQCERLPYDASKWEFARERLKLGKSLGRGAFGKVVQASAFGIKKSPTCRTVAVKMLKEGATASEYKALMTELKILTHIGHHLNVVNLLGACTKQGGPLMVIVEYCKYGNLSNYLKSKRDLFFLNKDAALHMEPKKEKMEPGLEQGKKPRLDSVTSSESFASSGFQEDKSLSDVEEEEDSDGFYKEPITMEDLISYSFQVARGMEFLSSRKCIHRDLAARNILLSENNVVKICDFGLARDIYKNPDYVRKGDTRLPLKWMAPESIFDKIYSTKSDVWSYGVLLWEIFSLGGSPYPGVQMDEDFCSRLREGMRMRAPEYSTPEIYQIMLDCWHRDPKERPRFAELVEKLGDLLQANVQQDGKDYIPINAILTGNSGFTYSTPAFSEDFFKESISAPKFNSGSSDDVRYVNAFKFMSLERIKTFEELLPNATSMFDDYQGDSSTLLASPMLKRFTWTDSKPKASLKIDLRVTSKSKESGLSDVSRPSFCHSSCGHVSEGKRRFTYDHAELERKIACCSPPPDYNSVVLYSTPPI

MST4 (human) = MST4 (human) (UniProt Q9P289)
Sequence of MST4 (human) (Q9P289 whole entry, looked up): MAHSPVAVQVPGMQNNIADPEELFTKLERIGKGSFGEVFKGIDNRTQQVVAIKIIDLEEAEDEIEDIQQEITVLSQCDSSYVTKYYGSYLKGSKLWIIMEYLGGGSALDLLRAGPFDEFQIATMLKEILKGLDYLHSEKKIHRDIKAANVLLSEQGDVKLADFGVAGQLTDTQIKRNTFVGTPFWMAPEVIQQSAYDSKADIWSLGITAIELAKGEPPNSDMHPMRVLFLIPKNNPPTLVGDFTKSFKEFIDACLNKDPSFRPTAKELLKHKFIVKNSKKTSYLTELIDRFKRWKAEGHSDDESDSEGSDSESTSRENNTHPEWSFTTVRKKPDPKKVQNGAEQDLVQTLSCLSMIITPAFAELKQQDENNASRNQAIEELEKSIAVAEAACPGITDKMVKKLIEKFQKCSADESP

Sequence of MAPK12 (human) (P53778 whole entry, looked up): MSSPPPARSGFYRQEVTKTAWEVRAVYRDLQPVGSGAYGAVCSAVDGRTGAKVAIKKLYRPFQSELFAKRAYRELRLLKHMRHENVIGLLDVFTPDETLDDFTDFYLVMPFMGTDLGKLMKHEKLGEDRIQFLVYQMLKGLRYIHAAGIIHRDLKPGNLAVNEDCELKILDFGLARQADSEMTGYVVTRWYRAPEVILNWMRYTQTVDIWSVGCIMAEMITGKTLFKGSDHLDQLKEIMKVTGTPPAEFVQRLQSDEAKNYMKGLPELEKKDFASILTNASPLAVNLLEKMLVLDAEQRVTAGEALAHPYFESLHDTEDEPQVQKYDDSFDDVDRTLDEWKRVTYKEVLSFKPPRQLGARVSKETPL

residual activity (PIM3 (human); compound 1.0 µM): 120%
residual activity (PIM3 (human); compound 10.0 µM): 121%
residual activity (MELK (human); compound 1.0 µM): 108%
residual activity (MELK (human); compound 10.0 µM): 118%
residual activity (CHEK1 (human); compound 1.0 µM): 109%
residual activity (CHEK1 (human); compound 10.0 µM): 115%
residual activity (PRKCA (human); compound 1.0 µM): 102%
residual activity (PRKCA (human); compound 10.0 µM): 117%
residual activity (MAPK12 (human); compound 1.0 µM): 120%
residual activity (MAPK12 (human); compound 10.0 µM): 132%
residual activity ([1]; compound 1.0 µM): 104%
residual activity ([1]; compound 10.0 µM): 113%
residual activity (PRKACA (human); compound 1.0 µM): 106%
residual activity (PRKACA (human); compound 10.0 µM): 98%
residual activity (PHKG1 (human); compound 1.0 µM): 106%
residual activity (PHKG1 (human); compound 10.0 µM): 101%
residual activity (MAPKAPK5 (human); compound 1.0 µM): 101%
residual activity (MAPKAPK5 (human); compound 10.0 µM): 109%
residual activity (CDK2 CCNA2 (human); compound 1.0 µM): 97%
residual activity (CDK2 CCNA2 (human); compound 10.0 µM): 91%
residual activity (CSNK2A1 (human); compound 1.0 µM): 93%
residual activity (CSNK2A1 (human); compound 10.0 µM): 93%
residual activity (PIM2 (human); compound 1.0 µM): 115%
residual activity (PIM2 (human); compound 10.0 µM): 113%
residual activity (MAPKAPK3 (human); compound 1.0 µM): 91%
residual activity (MAPKAPK3 (human); compound 10.0 µM): 130%
residual activity (SRPK1 (human); compound 1.0 µM): 107%
residual activity (SRPK1 (human); compound 10.0 µM): 98%
residual activity (MAPK10 (human); compound 1.0 µM): 101%
residual activity (MAPK10 (human); compound 10.0 µM): 102%
residual activity (EEF2K (human); compound 1.0 µM): 97%
residual activity (EEF2K (human); compound 10.0 µM): 96%
residual activity (AURKB (human); compound 1.0 µM): 96%
residual activity (AURKB (human); compound 10.0 µM): 87%
residual activity (RPS6KA3 KD1 KD2 (human); compound 1.0 µM): 88%
residual activity (RPS6KA3 KD1 KD2 (human); compound 10.0 µM): 99%
residual activity (DYRK2 (human); compound 1.0 µM): 93%
residual activity (DYRK2 (human); compound 10.0 µM): 89%
SMILES: Cc1cccc(Nc2nn(C)c3ncnc(N)c23)c1
residual activity (MAPK15 (human); compound 1.0 µM): 76%
residual activity (MAPK15 (human); compound 10.0 µM): 93%

residual activity (PIM3 (human); compound 0.1 µM): 93%
residual activity (PIM3 (human); compound 1.0 µM): 88%
residual activity (PIM3 (human); compound 10.0 µM): 83%
residual activity (MELK (human); compound 0.1 µM): 94%
residual activity (MELK (human); compound 1.0 µM): 101%
residual activity (MELK (human); compound 10.0 µM): 87%
residual activity (CHEK1 (human); compound 0.1 µM): 90%
residual activity (CHEK1 (human); compound 1.0 µM): 83%
residual activity (CHEK1 (human); compound 10.0 µM): 83%
residual activity (PRKCA (human); compound 0.1 µM): 119%
residual activity (PRKCA (human); compound 1.0 µM): 106%
residual activity (PRKCA (human); compound 10.0 µM): 62%
residual activity (INSRR (human); compound 0.1 µM): 88%
residual activity (INSRR (human); compound 1.0 µM): 96%
residual activity (INSRR (human); compound 10.0 µM): 77%
residual activity (MAPK12 (human); compound 0.1 µM): 107%
residual activity (MAPK12 (human); compound 1.0 µM): 102%
residual activity (MAPK12 (human); compound 10.0 µM): 103%
residual activity ([1]; compound 0.1 µM): 106%
residual activity ([1]; compound 1.0 µM): 74%
residual activity ([1]; compound 10.0 µM): 65%
residual activity (BTK (human); compound 0.1 µM): 83%
residual activity (BTK (human); compound 1.0 µM): 87%
residual activity (BTK (human); compound 10.0 µM): 92%
residual activity (PRKACA (human); compound 0.1 µM): 84%
residual activity (PRKACA (human); compound 1.0 µM): 83%
residual activity (PRKACA (human); compound 10.0 µM): 34%
residual activity (PHKG1 (human); compound 0.1 µM): 100%
residual activity (PHKG1 (human); compound 1.0 µM): 96%
residual activity (PHKG1 (human); compound 10.0 µM): 104%
residual activity (MAPKAPK5 (human); compound 0.1 µM): 114%
residual activity (MAPKAPK5 (human); compound 1.0 µM): 97%
residual activity (MAPKAPK5 (human); compound 10.0 µM): 87%
residual activity (EPHA2 (human); compound 0.1 µM): 95%
residual activity (EPHA2 (human); compound 1.0 µM): 86%
residual activity (EPHA2 (human); compound 10.0 µM): 89%
residual activity (CDK2 CCNA2 (human); compound 1.0 µM): 101%
residual activity (CDK2 CCNA2 (human); compound 10.0 µM): 88%
residual activity (CSNK2A1 (human); compound 0.1 µM): 96%
residual activity (CSNK2A1 (human); compound 1.0 µM): 92%
residual activity (CSNK2A1 (human); compound 10.0 µM): 83%
residual activity (PIM2 (human); compound 0.1 µM): 90%
residual activity (PIM2 (human); compound 1.0 µM): 90%
residual activity (PIM2 (human); compound 10.0 µM): 100%
residual activity (FGFR1 (human); compound 0.1 µM): 91%
residual activity (FGFR1 (human); compound 1.0 µM): 92%
residual activity (FGFR1 (human); compound 10.0 µM): 63%
residual activity (SRPK1 (human); compound 0.1 µM): 108%
residual activity (SRPK1 (human); compound 1.0 µM): 106%
residual activity (SRPK1 (human); compound 10.0 µM): 101%
residual activity (FLT1 (human); compound 0.1 µM): 97%
residual activity (FLT1 (human); compound 1.0 µM): 83%
residual activity (FLT1 (human); compound 10.0 µM): 37%
residual activity (EEF2K (human); compound 0.1 µM): 90%
residual activity (EEF2K (human); compound 1.0 µM): 73%
residual activity (EEF2K (human); compound 10.0 µM): 78%
residual activity (MST4 (human); compound 0.1 µM): 87%
residual activity (MST4 (human); compound 1.0 µM): 77%
residual activity (MST4 (human); compound 10.0 µM): 46%
residual activity (AURKB (human); compound 0.1 µM): 89%
residual activity (AURKB (human); compound 1.0 µM): 87%
residual activity (AURKB (human); compound 10.0 µM): 49%
residual activity (RPS6KA3 KD1 KD2 (human); compound 0.1 µM): 86%
residual activity (RPS6KA3 KD1 KD2 (human); compound 1.0 µM): 67%
residual activity (RPS6KA3 KD1 KD2 (human); compound 10.0 µM): 25%
residual activity (DYRK2 (human); compound 0.1 µM): 97%
residual activity (DYRK2 (human); compound 1.0 µM): 104%
residual activity (DYRK2 (human); compound 10.0 µM): 101%
SMILES: CCc1cncnc1N1CCN(Cc2nc3cc(C(F)(F)F)ccc3[nH]2)CC1
residual activity (MAPK15 (human); compound 0.1 µM): 85%
residual activity (MAPK15 (human); compound 1.0 µM): 83%
residual activity (MAPK15 (human); compound 10.0 µM): 71%
